# Test results taken from patent publication US20110268789A1, “USE OF PITUITARY ADENYLATE CYCLASE-ACTIVATING POLYPEPTIDE (PACAP) AND PACAP ANALOGS AS ADJUNCTIVE TREATMENTS WITH ANTICANCER AGENTS” (priority 2008, published 2011).
# Read-outs that look alike come from different tables or passages of the source.
# Columns and labels:
# [1] = system: PC-12 rat pheochromocytoma cells; experiment: Cisplatin-induced apoptotic cell death of pheochromocytoma cells; assay type: cell-based; settings: PC-12 cells
# Method: The PC-12 rat pheochromocytoma cells were cultured in F-12K medium supplemented with 15% horse serum and 2.5% fetal bovine serum. The dose-dependent inhibitory effects of PACAP38 and the PACAP38 analogs on apoptotic cell death were assessed by the quantitative determination of cytoplasmic histone-associated DNA-fragmentation (mono- and oligonucleosomes) after exposure to cisplatin for 24 hours. Each value represents the mean plus/minus the standard error of four determinations. **p<0.01 and *p<0.05 compared to the cisplatin-treated (control) cells.
# [2] = system: human erythroleukemia cells; experiment: Thalidomide-induced apoptotic cell death of erythroleukemia cells; assay type: cell-based
# Method: The human myeloid leukemia cells were cultured in RPMI 1640 medium supplemented with 10% non-inactivated fetal bovine serum. The effects of PACAP38, [D-Ser^2]PACAP38 and VIP on apoptotic cell death was assessed by the quantitative determination of cytoplasmic histone-associated DNA-fragmentation (mono- and oligonucleosomes) after exposure to thalidomide for 48 hours. Each value represents the mean plus/minus the standard deviation of four determinations. **p<0.01 and *p<0.05 compared to the thalidomide-treated (control) cells.
# [3] = system: HK-2 human kidney cells; experiment: Cell-based adhesion assay: binding of cisplatin-treated renal cells to extracellular matrix components; settings: HK-2 cells, 50 μM cisplatin, FIG. 5
# Source text: The wells of a 96-well plate were coated with […] fibronectin, collagen I or collagen IV. […] PACAP38 partially reversed the decrease in binding to fibronectin and collagen IV in the cells exposed to cisplatin. Each value represents the mean plus/minus the standard error of four determinations. **p<0.01 compared to the corresponding cisplatin-treated (control) cells.
# [4] = system: HK-2 human kidney cells; experiment: Cisplatin-induced apoptotic cell death of human renal proximal tubule epithelial cells (histone-associated DNA fragmentation); assay type: cell-based; settings: HK-2 cells
# Method: (§1) The HK-2 human kidney cells were cultured in Keratinocyte-Serum Free Medium supplemented with recombinant epidermal growth factor and bovine pituitary extract. The dose-dependent inhibitory effect of PACAP38 on apoptotic cell death was assessed by the quantitative determination of cytoplasmic histone-associated DNA-fragmentation (mono- and oligonucleosomes) after exposure to cisplatin for 24 hours. Each value represents the mean plus/minus the standard error of four determinations in three replicate experiments. **p<0.01 compared to the cisplatin-treated (control) cells.
# as §1, with “deviation” for “error”, “different” for “replicate”, “**p<0.01 and *p<0.05” for “**p<0.01”
# [5] = system: Jurkat human T-lymphocyte leukemia cells; experiment: Etoposide-induced apoptotic cell death of leukemia cells; assay type: cell-based
# Method: The Jurkat human T-lymphocyte leukemia cells were cultured in RPMI 1640 medium supplemented with 10% non-inactivated fetal bovine serum. The effects of PACAP27 and PACAP38 on apoptotic cell death was assessed by the quantitative determination of cytoplasmic histone-associated DNA-fragmentation (mono- and oligonucleosomes) after exposure to etoposide for 48 hours. Each value represents the mean plus/minus the standard deviation of three determinations. **p<0.01 and *p<0.05 compared to the etoposide-treated (control) cells.
# [6] = system: Middle cerebral artery occlusion (MCAO) in the rat; settings: cited from earlier work; for reduction of the infarct volume: 48 hours after start
# [7] = system: light-chain immunoglobulin-secreting human myeloma cells; experiment: Carmustine-induced apoptotic cell death of myeloma cells; assay type: cell-based
# Method: (§2) The light-chain immunoglobulin-secreting human myeloma cells were cultured in RPMI 1640 medium supplemented with 10% non-inactivated fetal bovine serum and 0.05 mM 2-mercaptoethanol. The effects of PACAP38, and [Ala^22]PACAP38 on apoptotic cell death was assessed by the quantitative determination of cytoplasmic histone-associated DNA-fragmentation (mono- and oligonucleosomes) after exposure to carmustine for 48 hours. Each value represents the mean plus/minus the standard deviation of three determinations. **p<0.01 and *p<0.05 compared to the carmustine-treated (control) cells.
# [8] = system: light-chain immunoglobulin-secreting human myeloma cells; experiment: Doxorubicin-induced apoptotic cell death of myeloma cells; assay type: cell-based
# Method: as §2, with “[Ala^16,17,D-Lys^38]PACAP38” for “[Ala^22]PACAP38”, “doxorubicin” for “carmustine”, “doxorubicin-treated” for “carmustine-treated”
# At the lowest dose tested (10^−8 M), both peptides reduced the doxorubicin-induced apoptotic cell death of these malignant plasma cells.
# [9] = system: light-chain immunoglobulin-secreting human myeloma cells; experiment: Thalidomide-induced apoptotic cell death of myeloma cells; assay type: cell-based
# Method: as §2, with “PACAP38” for “PACAP38, and [Ala^22]PACAP38”, “thalidomide” for “carmustine”, “four” for “three”, “thalidomide-treated” for “carmustine-treated”
substance,measurement,setting,value
PACAP38,reduction in cisplatin-induced apoptotic cell death,"[1]; cisplatin 24 hours, FIG. 13",dose-dependent reduction
same,reduction of cisplatin-induced apoptotic cell death,[1]; highest dose tested (10^−6 M),significantly reduced
same,lowest dose with significant enhancement of thalidomide-induced apoptotic cell death,[2],10^−8 M
same,effect on thalidomide-induced apoptotic cell death,"[2]; thalidomide 48 hours, FIG. 20",dose-dependent enhancement
same,reversal of inhibitory effect of cisplatin on binding to fibronectin-based or collagen IV-based matrix,[3],significantly reversed
same,reduction in cisplatin-induced apoptotic cell death,"[4]; cisplatin 24 hours, peptide added to the medium, FIG. 3",significant dose-dependent reduction
same,relative effectiveness as protectants against cisplatin-induced apoptotic cell death,"[4]; comparable concentrations, FIG. 4",similarly effective
same,prevention of apoptotic cell death caused by cisplatin,[4]; highest dose tested,almost completely prevented
same,reduction in etoposide-induced apoptotic cell death,"[5]; Jurkat cells, etoposide 48 hours, FIG. 15",small reduction
same,significance of the reduction of etoposide-induced apoptotic cell death,"[5]; Jurkat cells, highest dose tested 10^−6 M",only significant at the highest dose
same,potency as cytoprotectant of kidney and lung epithelial cells relative to protection of T-lymphocyte leukemia cells against etoposide,"[5]; versus cisplatin (FIG. 3), doxorubicin (FIG. 11), bleomycin (FIG. 12)",about 100 fold
same,reduction of the infarct volume,[6]; 160 pmol/hr i.v. infusion beginning 4 hours after start of MCAO,approximately 51%
same,reduction of the infarct volume,[6]; 160 pmol/hr i.v. infusion beginning 8 hours after start of MCAO,~22%
same,reduction of the infarct volume,[6]; 160 pmol/hr i.v. infusion beginning 12 hours after start of MCAO,~12%
same,"effect of continuous intravenous infusion on plasma glucose levels, blood gases, blood pressure",[6]; 160 pmol/hr i.v.,"did not appear to alter plasma glucose levels, blood gases or blood pressure"
same,relative potency as enhancer of carmustine-induced apoptotic cell death,[7],more potent than [Ala^22]PACAP38
same,effect on carmustine-induced apoptotic cell death,"[7]; carmustine 48 hours, FIG. 17",enhancement
same,effect on carmustine-induced apoptotic cell death,[7]; highest dose tested (10^−6 M),significantly enhanced
same,effect on doxorubicin-induced apoptotic cell death (dose-response),"[8]; doxorubicin 48 hours, FIG. 16",biphasic dose-response effect
same,effect on doxorubicin-induced apoptotic cell death,[8]; highest dose tested (10^−6 M),significantly enhanced
same,effect on doxorubicin-induced apoptotic cell death,[8]; lowest dose tested (10^−8 M),reduced
same,lowest dose with significant enhancement of thalidomide-induced apoptotic cell death,[9],10^−8 M
same,effect on thalidomide-induced apoptotic cell death,"[9]; thalidomide 48 hours, FIG. 19",dose-dependent enhancement
